Test results: patent publication US20100184809A1, “Heterocyclic FXR Binding Compounds” (PHENEX PHARMACEUTICALS AG, priority 2006, published 2010)
≈ marks a conversion by molar mass, not a printed value. Read-outs that look alike come from different tables or passages of the source.

Columns and labels:
[1] = Aqueous solubility assay, Protocol A, nephelometry method; type: physicochemical; details: PBS with 5% DMSO, aqueous with cosolvent or surfactant or cyclodextrin, kinetic from dmso stock, PBS pH 7.4, 5% DMSO
Description: Aqueous solubility of compounds was determined by nephelometry or by the shake-flask method as follows:
Protocol A, nephelometry method:
Solubility of compounds was measured in PBS (pH 7.4), 5% DMSO at 23° C. Nepheloskan Ascent (Thermo Electron Corporation) nephelometer was used for measurement of light scattering. Tested compounds were dissolved in DMSO to 10 mM. Prior to measurement the compounds were further diluted with PBS in the wells to final compound concentrations of 100, 70, 50, 35, 25, 17, 12 and <10 μg/ml.
The plates were incubated at room temperature for 24 hours to reach equilibrium and the scattered light was measured. Assay validation: Aqueous solubility of acetylsalicylic acid was determined to validate the assay.
The following compounds of Table 2 exemplify such solubility with “−−” meaning solubility<2 μM, “+” meaning 2 μM solubility 100 μM and “++” meaning solubility

[2] = The Merck index, 10th edition; cited from earlier work
[3] = Aqueous solubility assay, Protocol B, shake-flask method; type: physicochemical; details: aqueous buffer, 10 mM PBS buffer pH 7.4, 1% MeOH, room temperature, read-out: Aqueous solubility pH 7.4 (μM) (±standard deviation), shake-flask method
Description: Protocol B, shake-flask method:
Sample preparation: Sample and standard solution preparation is performed by mixing equal volumes of acetonitrile containing the internal standard (1 μM final concentration) with sample and calibration standard solutions (100 μl). After vigorously shaking (10 seconds) the samples are centrifuged (6000 g) for 5 minutes at 20° C. Aliquots of the particle-free supernatants are transferred to 200 μl sample vials and subsequently subjected to LC-MS/MS. Assay procedure: Test concentration was 100 μM in 10 mM PBS buffer pH 7.4 with a final MeOH concentration of 1%. The volume of the incubation solution was 500 μl. Depending on each compound's solubility in MeOH, the stock concentration and the incubation concentration was adapted. The test solutions in quadruplicates were shaken at 300 rpm over a 20 hours period at room temperature, followed by centrifugation at 20000 g for 30 minutes to separate the solid phase. 100 μl of particle free sample are added to 100 μl acetonitrile containing the internal standard. The aqueous solubility of the compounds was determined by measuring the concentration of the PBS buffer supernatant by HPLC-MS/MS.

[4] = PAMPA permeability assay; type: in vitro ADME; details: % of compound found in the receiver compartment after 16 hours; PBS pH 7.4, 5% DMSO, 23° C.
Description: Artificial membrane permeability was determined as follows: Tested compounds were dissolved to 10 mM in 100% DMSO. Permeability of compounds was measured in PBS (pH 7.4), 5% DMSO at 23° C. Safire (Tecan) plate reader was used for measurement the UV/Vis absorption. Protocol: Dilute stocks of tested compounds and controls with PBS to 1.67 mM and mix well by pipeitting, add 280 μl of PBS, 5% DMSO to acceptor plate, add 5 μl of 2% L-α-Phosphatidylcholine suspension in dodecane to the membrane of donor plate, Immediately add 98 μl of PBS to donor plate and make the sandwich with acceptor plate. Add 42 μl of tested compounds and controls dilutions to […], cover the plate, place into camera and incubate for 16 hours. Make the equilibrium plate, add 225 μl of PBS, 3,7% DMSO and 25 μl of tested compounds and controls dilutions to UV plate. After 16 hours pull the donor plate out and transfer 250 μl from acceptor plate to UV plate. Scan UV plate on Safire (Tecan) plate reader from […]. Permeability is reported in % of compound found in the receiver compartment after the incubation period.

[5] = Mouse microsomal stability assay; type: in vitro ADME; details: pH 7.4; mouse liver microsomes, 37° C.
Description: In vitro assays were performed to evaluate the metabolic stability of test items in liver microsomes originating from mouse. Preparation of working standards of test items: Working solutions were prepared for each calibration level by appropriate dilution of the corresponding stock solution, depending on each compound's solubility in acetonitrile or acetonitrile/water. Calibration standards were prepared by spiking 196 μl standard matrix with 4 μl of the corresponding working solution. The standard matrix consists of 0.15 mg/ml of microsomal protein in phosphate buffer (100 mM pH 7.4), the final standard solutions contain 2% acetonitrile. The samples and standard solutions were extracted with ethyl acetate, isolation of the compounds was performed by addition of 600 μl ethyl acetate containing the internal standard (0.1 μM) to 200 μl sample and calibration standard. After vigorously shaking (10 minutes) and centrifugation (5000 g) the aqueous phase was separated by freezing in an acetone/dry ice bath and the organic phase is evaporated to dryness using a vacuum centrifuge. Samples were reconstituted in 200 μl acetonitrile/water mix (1:1 v/v) and subsequently subjected to LC-MS/MS. The incubation solution (180 μl) consisted of 90 μl of a microsomal suspension of 0.33 mg/ml of protein in phosphate buffer 100 mM pH 7.4 and 90 μl NADP-regenerating system. The reaction was initiated by the addition of 20 μl of test compound (in 20% acetonitrile) to the preincubated microsomes/buffer mix at 37° C. 200 μl samples were removed from the incubation after 0, 5, 10, and 30 minutes and processed for ethyl acetate extraction as described above. Negative controls using boiled microsomes (boiling water bath, 25 minutes) without regenerating system were run in parallel. The amount of compound in the samples is expressed as percentage of remaining compound compared to time point zero (=100%). These percentages were plotted against the corresponding time points. Intrinsic clearance (CLint) and half-life (t1/2) estimates were determined using the rate of parent disappearance and following formula (1) and (2). (1) CLint=(−k)×V×fu. (2) t1/2=In2/−k. Where CLint=intrinsic clearance [μl/min/mg protein], t1/2=half life [min], k=slope from the linear regression of log [test compound] versus time plot [1/min]. V=6666.7; fu=unbound fraction in the blood. Applying this protocol gave microsomal stabilities for examples and reference compounds as listed below in Table 9: […]

SMILES | solubility at 24 h ([1]; 23 °C, at the day of experiment, read-out: Aqueous solubility (assay validation)) | Aqueous solubility, reported literature value [2] | solubility at 24 h ([1]; 23° C., 24 hours, read-out: Aqueous solubility pH 7.4) | solubility at 20 h [3] | PAMPA Permeability [4] | half-life [5] | microsomal CLint [5]
CC(=O)Oc1ccccc1C(=O)O [acetylsalicylic acid, reference compound] | > 100 µg/mL | at least 2,17 mg/ml |  |  |  |  | 
CC(C)c1onc(-c2c(Cl)cccc2Cl)c1CCc1ccc(Oc2ccc(C(=O)O)cc2)cc1 [Compound A, reference compound] |  |  | 2 to 100 µM | 72.4 µM (≈ 35.9 µg/mL) | 32% | 22 min | 207 µL/min/mg
